Laboratory results as given in patent US20230255966A1, “A COMBINATION OF A CBP/P300 BROMODOMAIN INHIBITOR AND AN EGFR INHIBITOR FOR USE IN TREATING EGFR-MUTANT NSCLC” (TOLREMO THERAPEUTICS AG, priority 2020, published 2023).

Assays:
HCC827 cells [1] = test: Cell counting by nuclear fluorescent staining (Hoechst33342); type: cell-based
Description: Several plates were seeded, as for each time point of cell counting one plate was fixed and stained for analysis. […] Cell cultivation was continued until time of fixation and analysis for each plate. For extended time-points, medium and drugs were replenished twice weekly.
At the given time plates were washed 3 times with PBS and cells fixed with 80 μl 4% PFA for 10 min, RT. After 3 wash steps with PBS cells were stained with 10 μg/ml Hoechst33342 (Thermo Scientific H12492) in 100 μl PBS for 2 h, RT, dark. After 3× PBS washing-steps, Hoechst33342 signals were acquired on in an automated imaging mode using a Zeiss Apotome with motorized X/Y stage and a 5× objective. Image analysis and determination of Hoechst33342 spots (nuclei) was done using ImageJ. Number of nuclei was plotted as function of time using GraphPad Prism.

HCC4006 cells = test: Label-free determination of cell proliferation (CELIGO); settings: 21 days (FIG. 10)
Description: 2000 HCC4006 (ATCC; CRL2871) were seeded into 96 well plates (Greiner BioOne 655090) one day prior to drug treatment in RPMI medium containing 10% FCS and 2 mM L-Glutamine. The next day wells were imaged label-free using brightfield imaging on a CELIGO Image Cytometer to determine the initial cell number. Subsequently cells were treated with either DMSO, with single drugs (osimertinib and each of the CBP/p300 bromodomain inhibitors) or drug combinations of 100 nM osimertinib and one CBP/p300 bromodomain inhibitor with drug concentrations given below. Plates were regularly imaged over weeks using brightfield mode (CELIGO Imaging Cytometer) to track cell proliferation in each well over time. Growth medium and treatments were replenished twice weekly. […] Cell numbers were determined using CELIGO software's built-in “direct cell counting” analysis tool in the brightfield mode.

HCC827 cells [2] = test: Gene expression analysis (qPCR of ALPP and HOPX); type: cell-based; settings: HCC827, 1 μM CBP/p300 inhibitor in presence of Gefitinib, 24 h
Description: (§1) Equal amount of cDNA was then subjected to qPCR analysis using the Kapa SYBR fast kit (KK4611) in a 384 well format in a Roche Light Cycler 480. Gene expression of genes was evaluated by subtraction of housekeeping gene CT-values (b-Actin) from CT of the genes of interest, and by calculating the ΔΔCT by subtracting the DMSO control value from sample of interest to finally calculate fold change differences of treated versus control treated sample.
(§2) Data is from 2 independent experiments with qPCRs in duplicate (mean±SEM) (FIG. 1C-D).

NCI-H1975 cells = test: Gene expression analysis (qPCR of ALPP and HOPX); type: cell-based; settings: NCI-H1975, 1 μM CBP/p300 inhibitor in presence of 20 nM osimertinib, 24 h
Description: as §1, §2

SMARCA2 = target: T1, SMARCA2 (Homo sapiens, UniProt P51531); test: BROMOscan BromoKdMAX; type: binding
T1 construct: T7 phage strains displaying bromodomains were grown in parallel; purchased DiscoverX (BROMOscan / BromoKdMAX service); host or cells: T7 phage in E. coli host derived from BL21
T1 sequence (P51531 1378-1506 limits assumed): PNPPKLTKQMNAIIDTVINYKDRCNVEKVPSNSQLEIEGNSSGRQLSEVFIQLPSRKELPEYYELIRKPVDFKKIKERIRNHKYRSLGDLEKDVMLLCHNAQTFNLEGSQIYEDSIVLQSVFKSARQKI
Description: (§3) A BromoKdMAX was performed at DiscoverX.
(§4) The assay principle is the following: BROMOscan™ is a novel industry leading platform for identifying small molecule bromodomain inhibitors. Based on proven KINOMEscan™ technology, BRO-MOscan™ employs a proprietary ligand binding site-directed competition assay to quantitatively measure interactions between test compounds and bromodomains. This robust and reliable assay panel is suitable for high throughput screening and delivers quantitative ligand binding data to facilitate the identification and optimization of potent and selective small molecule bromodomain inhibitors.
(§5) The assay was conducted as follows: For the Bromodomain assays, T7 phage strains displaying bromodomains were grown in parallel in 24-well blocks in an E. coli host derived from the BL21 strain. E. coli were grown to log-phase and infected with T7 phage from a frozen stock (multiplicity of infection=0.4) and incubated with shaking at 32° C. until lysis (90-150 minutes). The lysates were centrifuged (5,000×g) and filtered (0.2 μm) to remove cell debris. […] The liganded beads were blocked with excess biotin and washed with blocking buffer (SeaBlock (Pierce), 1% BSA, 0.05% Tween 20, 1 mM DTT) to remove unbound ligand and to reduce non-specific phage binding. […] Test compounds were prepared as 1000× stocks in 100% DMSO. Kds were determined using an 11-point 3-fold compound dilution series with one DMSO control point. […] The compounds were then diluted directly into the assays such that the final concentration of DMSO was 0.09%. All reactions performed in polypropylene 384-well plates. Each was a final volume of 0.02 ml. […] The bromodomain concentration in the eluates was measured by qPCR.

BAZ2B = target: T2, BAZ2B (Homo sapiens, UniProt Q9UIF8); test: BROMOscan BromoKdMAX; type: binding
T2 construct: T7 phage strains displaying bromodomains were grown in parallel; purchased DiscoverX; host or cells: T7 phage in E. coli host derived from BL21
T2 sequence (Q9UIF8 2060-2164 limits assumed): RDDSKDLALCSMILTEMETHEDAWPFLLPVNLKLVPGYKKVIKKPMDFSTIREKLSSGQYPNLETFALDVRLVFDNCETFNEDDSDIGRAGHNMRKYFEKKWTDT
Description: as §3, §4, §5

ATAD2B = target: T3, ATAD2B (Homo sapiens, UniProt Q9ULI0); test: BROMOscan BromoKdMAX; type: binding
T3 construct: T7 phage strains displaying bromodomains were grown in parallel; purchased DiscoverX; host or cells: T7 phage in E. coli host derived from BL21
T3 sequence (Q9ULI0 951-1066 limits assumed): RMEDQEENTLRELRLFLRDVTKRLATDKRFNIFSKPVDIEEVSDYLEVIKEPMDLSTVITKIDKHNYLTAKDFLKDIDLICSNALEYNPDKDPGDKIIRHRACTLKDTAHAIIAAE
Description: as §3, §4, §5

BAZ2A = target: T4, BAZ2A (Homo sapiens, UniProt Q9UIF9); test: BROMOscan BromoKdMAX; type: binding
T4 construct: T7 phage strains displaying bromodomains were grown in parallel; purchased DiscoverX; host or cells: T7 phage in E. coli host derived from BL21
T4 sequence (Q9UIF9 1793-1897 limits assumed): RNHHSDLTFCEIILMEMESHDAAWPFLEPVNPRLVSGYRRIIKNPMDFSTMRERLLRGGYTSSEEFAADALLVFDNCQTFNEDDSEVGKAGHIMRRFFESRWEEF
Description: as §3, §4, §5

ATAD2A = target: T5, ATAD2A (Homo sapiens, UniProt Q6PL18); test: BROMOscan BromoKdMAX; type: binding
T5 construct: T7 phage strains displaying bromodomains were grown in parallel; purchased DiscoverX; host or cells: T7 phage in E. coli host derived from BL21
T5 sequence (Q6PL18 980-1092 limits assumed): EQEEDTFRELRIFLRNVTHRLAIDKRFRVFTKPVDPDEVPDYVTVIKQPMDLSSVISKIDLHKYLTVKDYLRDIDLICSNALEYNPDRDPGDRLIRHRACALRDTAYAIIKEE
Description: as §3, §4, §5

FALZ = target: T6, FALZ (Homo sapiens, UniProt Q12830); test: BROMOscan BromoKdMAX; type: binding
T6 construct: T7 phage strains displaying bromodomains were grown in parallel; purchased DiscoverX (BROMOscan / BromoKdMAX service); host or cells: T7 phage in E. coli host derived from BL21
Description: as §3, §4, §5

GCN5L2 = target: T7, GCN5L2 (Homo sapiens, UniProt Q92830); test: BROMOscan BromoKdMAX; type: binding
T7 construct: T7 phage strains displaying bromodomains were grown in parallel; purchased DiscoverX (BROMOscan / BromoKdMAX service); host or cells: T7 phage in E. coli host derived from BL21
T7 sequence (Q92830 728-832 limits assumed): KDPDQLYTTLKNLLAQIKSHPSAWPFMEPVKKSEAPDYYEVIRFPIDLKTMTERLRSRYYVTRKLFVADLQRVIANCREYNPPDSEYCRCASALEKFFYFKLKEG
Description: as §3, §4, §5

SMARCA4 = target: T8, SMARCA4 (Homo sapiens, UniProt P51532); test: BROMOscan BromoKdMAX; type: binding
T8 construct: T7 phage strains displaying bromodomains were grown in parallel; purchased DiscoverX (BROMOscan / BromoKdMAX service); host or cells: T7 phage in E. coli host derived from BL21
T8 sequence (P51532 1453-1564 limits assumed): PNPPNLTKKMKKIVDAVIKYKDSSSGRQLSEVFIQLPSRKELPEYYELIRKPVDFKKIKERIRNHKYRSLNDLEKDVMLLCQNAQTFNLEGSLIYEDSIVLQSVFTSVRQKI
Description: as §3, §4, §5

BRD1 = target: T9, BRD1 (Homo sapiens, UniProt O95696); test: BROMOscan BromoKdMAX; type: binding
T9 construct: T7 phage strains displaying bromodomains were grown in parallel; purchased DiscoverX; host or cells: T7 phage in E. coli host derived from BL21
T9 sequence (O95696 562-666 limits assumed): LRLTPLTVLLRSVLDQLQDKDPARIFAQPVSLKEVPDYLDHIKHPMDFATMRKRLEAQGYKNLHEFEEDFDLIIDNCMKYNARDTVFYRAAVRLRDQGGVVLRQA
Description: as §3, §4, §5

BRPF3 = target: T10, BRPF3 (Homo sapiens, UniProt Q9ULD4); test: BROMOscan BromoKdMAX; type: binding
T10 construct: T7 phage strains displaying bromodomains were grown in parallel; purchased DiscoverX; host or cells: T7 phage in E. coli host derived from BL21
T10 sequence (Q9ULD4 589-693 limits assumed): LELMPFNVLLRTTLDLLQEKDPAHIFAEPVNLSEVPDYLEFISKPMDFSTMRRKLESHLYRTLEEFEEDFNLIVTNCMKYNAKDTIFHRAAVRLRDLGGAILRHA
Description: as §3, §4, §5

PBRM1(5) = target: T11, PBRM1(5) (Homo sapiens, UniProt Q86U86); test: BROMOscan BromoKdMAX; type: binding
T11 construct: T7 phage strains displaying bromodomains were grown in parallel; purchased DiscoverX (BROMOscan / BromoKdMAX service); host or cells: T7 phage in E. coli host derived from BL21
T11 sequence (Q86U86 653-763 limits assumed): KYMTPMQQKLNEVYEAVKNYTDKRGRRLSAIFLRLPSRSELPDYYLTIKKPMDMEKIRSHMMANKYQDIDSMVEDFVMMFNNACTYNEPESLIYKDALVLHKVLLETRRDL
Description: as §3, §4, §5

TRIM33(PHD, Bromo.) = target: T12, TRIM33(PHD, Bromo.) (Homo sapiens, UniProt Q9UPN9); test: BROMOscan BromoKdMAX; type: binding
T12 construct: TRIM33(PHD, Bromo.)
T12 sequence (Q9UPN9 whole entry): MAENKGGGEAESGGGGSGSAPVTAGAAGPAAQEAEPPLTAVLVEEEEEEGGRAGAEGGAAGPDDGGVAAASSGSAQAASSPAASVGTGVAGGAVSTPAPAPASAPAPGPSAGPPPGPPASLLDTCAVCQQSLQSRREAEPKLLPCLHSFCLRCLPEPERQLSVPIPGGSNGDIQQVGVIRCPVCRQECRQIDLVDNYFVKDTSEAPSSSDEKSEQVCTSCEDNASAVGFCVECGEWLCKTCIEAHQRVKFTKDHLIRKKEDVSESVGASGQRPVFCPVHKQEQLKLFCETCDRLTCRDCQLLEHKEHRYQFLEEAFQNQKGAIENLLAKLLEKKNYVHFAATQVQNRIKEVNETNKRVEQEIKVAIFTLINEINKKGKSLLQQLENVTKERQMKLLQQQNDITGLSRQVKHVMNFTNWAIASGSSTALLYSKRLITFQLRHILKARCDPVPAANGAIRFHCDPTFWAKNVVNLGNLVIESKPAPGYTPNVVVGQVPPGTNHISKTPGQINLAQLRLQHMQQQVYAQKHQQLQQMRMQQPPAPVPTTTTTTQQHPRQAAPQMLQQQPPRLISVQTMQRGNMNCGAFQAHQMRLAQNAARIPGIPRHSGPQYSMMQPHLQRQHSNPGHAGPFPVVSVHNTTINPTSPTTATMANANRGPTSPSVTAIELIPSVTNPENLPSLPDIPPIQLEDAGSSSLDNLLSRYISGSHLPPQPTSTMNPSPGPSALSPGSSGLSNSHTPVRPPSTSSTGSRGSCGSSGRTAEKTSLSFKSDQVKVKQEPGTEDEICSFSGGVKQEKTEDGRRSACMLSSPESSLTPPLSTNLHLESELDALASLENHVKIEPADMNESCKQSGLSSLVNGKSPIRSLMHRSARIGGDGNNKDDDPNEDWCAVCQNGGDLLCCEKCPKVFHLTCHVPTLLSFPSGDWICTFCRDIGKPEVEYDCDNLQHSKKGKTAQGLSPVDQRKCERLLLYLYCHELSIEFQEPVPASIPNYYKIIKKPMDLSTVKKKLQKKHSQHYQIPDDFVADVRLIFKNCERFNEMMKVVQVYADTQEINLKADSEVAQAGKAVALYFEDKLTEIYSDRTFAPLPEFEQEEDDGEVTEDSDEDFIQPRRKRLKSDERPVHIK
Description: as §3, §4, §5

PBRM1(2) = target: T13, PBRM1(2) (Homo sapiens, UniProt Q86U86); test: BROMOscan BromoKdMAX; type: binding
T13 construct: T7 phage strains displaying bromodomains were grown in parallel; purchased DiscoverX (BROMOscan / BromoKdMAX service); host or cells: T7 phage in E. coli host derived from BL21
T13 sequence (Q86U86 177-287 limits assumed): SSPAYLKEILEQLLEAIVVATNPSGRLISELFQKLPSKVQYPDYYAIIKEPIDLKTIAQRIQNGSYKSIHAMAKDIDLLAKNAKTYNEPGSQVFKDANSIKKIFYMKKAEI
Description: as §3, §4, §5

HCC827 cells [3] = test: Label-free determination of cell proliferation (CELIGO); type: cell-based; settings: 21 days (FIG. 9)

Q: How did the “Effect on cell proliferation as single agent” value (HCC827 cells [1]; absence of EGFR inhibitor (FIG. 3 left)) turn out when `CO[C@H]1CC[C@H](n2c([C@@H]3CCCC(=O)N3c3ccc(F)c(F)c3)nc3cc(-c4c(C)noc4C)ccc32)CC1` [CCS1477] was run?
A: The value was “do not affect cell proliferation”.

Q: What about the “Anti-proliferative activity / re-growth in presence of Gefitinib” value (HCC827 cells [1]; in presence of 300 nM Gefitinib (FIG. 3)) of the same compound?
A: The value was “potentiate the effect of the EGFR inhibitor”.

Q: And the “Development of drug resistance / re-growth” value (HCC4006 cells; HCC4006, combined with 100 nM osimertinib)?
A: The value was “prevent the development of drug resistance”.

Q: What about the “Effect on cell proliferation on their own” value (HCC4006 cells; HCC4006, single agent (1 μM Compound A, 0.2 μM Compound C, 0.2 μM CCS1477, 1 μM FT-6876, 0.2 μM GNE-781)) of the same compound?
A: Its value is “do not affect cell proliferation”.

Q: And the “EGFR inhibitor induced gene expression (ALPP, HOPX)” value (HCC827 cells [2])?
A: The value was “reverse EGFR inhibitor induced gene expression”.

Q: What about the “EGFR inhibitor induced gene expression (ALPP, HOPX)” value (NCI-H1975 cells) of the same compound?
A: Its value is “reverse EGFR inhibitor induced gene expression”.

Q: And the Kd (SMARCA2)?
A: The Kd was greater than 10 µM.

Q: And the Kd (BAZ2B)?
A: Its Kd is greater than 10 µM.

Q: What about the Kd (ATAD2B) of the same compound?
A: Its Kd is greater than 10 µM.

Q: And the Kd (BAZ2A)?
A: Its Kd is greater than 10 µM.

Q: And the Kd (ATAD2A)?
A: Its Kd is greater than 10 µM.

Q: What about the Kd (FALZ) of the same compound?
A: The Kd was 5.5 µM.

Q: What about the Kd (GCN5L2) of the same compound?
A: Its Kd is greater than 10 µM.

Q: What about the Kd (SMARCA4) of the same compound?
A: The Kd was greater than 10 µM.

Q: What about the Kd (BRD1) of the same compound?
A: The Kd was greater than 10 µM.

Q: And the Kd (BRPF3)?
A: Its Kd is greater than 10 µM.

Q: What about the Kd (PBRM1(5)) of the same compound?
A: Its Kd is 3.1 µM.

Q: What about the Kd (TRIM33(PHD, Bromo.)) of the same compound?
A: Its Kd is greater than 10 µM.

Q: What about the Kd (PBRM1(2)) of the same compound?
A: Its Kd is greater than 10 µM.

Q: And the “Development of drug resistance / re-growth” value (HCC827 cells [3]; HCC827, combined with 100 nM osimertinib)?
A: The value was “prevent the development of drug resistance”.

Q: And the “Effect on cell proliferation on their own” value (HCC827 cells [3]; HCC827, single agent (1 μM Compound A, 0.2 μM Compound C, 0.2 μM CCS1477, 1 μM FT-6876, 0.2 μM GNE-781))?
A: Its value is “do not affect cell proliferation”.
